# According to US8293764B2, “Compositions and methods for disruption of BRCA2-Rad51 interaction” (The Regents of the University of California, priority 2004, dated 2012):
# Experiments:
# Format in all cases: cell-based
# [1] = test system: breast cancer cells (MDA-MB-468, MDA-MB-435, MCF-7, T47D); assay: MTT assay
# Experimental: The inventors examined the effects of IBR2 on the growth and viability of a panel of breast cancer cell lines. Five exponentially growing breast cancer cell lines (MDA-MB-231, MCF-7, MDA-MB-468, SKBR3 and MDA-MB-435) were incubated with IBR2 at various concentrations (0, 5, 10 and 20 μM) for various periods of time (1, 2, 3, 4 and 5 days). The viable cell numbers were then counted by trypan blue exclusion assay. […] We also examined the effects of IBR2 on the growth and viability of cultured breast cancer cells (MDA-MB-468, MDA-MB-435, MCF-7, T47D) using the 3-(4,5-dimethylthiazol-2-yl)-2,5-diphenyltetrazolium bromide (MTT) assay.
# Cell proliferation assay and clonogenic survival assays: To obtain cell growth curves, 1×10^4 cells were seeded in 12-well plate for 24 hours. Cells were then treated, in duplicate, with various concentrations of IBR2 in the presence of 0.4% DMSO. The viable cells were counted by trypan blue exclusion assay daily. MTT assay was performed as previously described (Alley et al., 1988).
# [2] = test system: non-small-cell lung carcinoma (CALU-1, A427, Sklu-1, CALU-6), osteosarcoma (SaoS2, U2OS) and glioblastoma (T98G) cell lines; assay: Proliferation of other cancer cell lines; settings: CALU-1, A427, Sklu-1, CALU-6, SaoS2, U2OS
# [3] = test system: MCF-7 cells; assay: S phase entry (BrdU) after nocodazole synchronization; settings: cells synchronized at M phase by nocodazole, re-plated
# Experimental: To test whether IBR2 treated cells are arrested at G1 and thus fail to enter S phase, MCF-7 cells were synchronized at M phase by nocodazole treatment and then re-plated to allow the entry to G1 phase. At different time points, cells were pulse labeled with BrdU to monitor S phase entry.
# Cell culture, cell synchronization, BrdU labeling and determination of mitotic index: Breast cancer cell lines and MEF cell lines were cultured in high-glucose Dulbecco modified Eagle medium containing 10% fetal bovine serum. MCF-10A cells were cultured as described previously (Debnath et al., 2003). Cell synchronization at M phase was achieved by treatment with 0.1 μg/ml nocodazole for 8 hours. Cell synchronization at G1/S boundary was achieved by treatment with 1 mM hydroxyurea for 17 hours, 9 hours of release and again with 1 mM hydroxyurea for 14 hours. For BrdU labeling, cells were incubated with BrdU for 30 minutes and fixed for BrdU immunostaining using a BrdU labeling kit (Amersham Biosciences). For determination of mitotic index, cells were fixed in 4% formaldehyde in PBS containing 0.1 μg/ml DAPI for 30 minutes at room temperature and examined by fluorescence microscopy. 500-1000 nuclei per sample were counted to determine the number of M phase cells which only includes prometaphase, metaphase, anaphase and telophase.
# [4] = test system: Rad51 in MCF-7 cells; assay: Rad51 stability assay with cyclohexamide; settings: with cyclohexamide; control cells 5.5 hours
# Description: To examine the impact of IBR2 on Rad51 protein expression, IBR2 treated MCF-7 cells was examined by straight western blot probed with a panel of antibodies against BRCA2, Rad51, Rad50, p84 and Rb. […] Consistent with our FACS analysis (FIG. 4A), the hypo-phosphorylated form of Rb, a marker for G1 phase, was the major form observed in the later time points, further confirming that IBR2 arrests cells at G1 phase (FIG. 4A). It has been reported that BRCA2 level is cell cycle dependent, which expresses low in G1 phase and peaks at G1/S boundary. Therefore the decreased level of BRCA2 in IBR2 treated cells may be due to G1 phase arrest. Different from BRCA2 protein, Rad51 protein is expressed constant throughout the cell cycle in MCF-7 cells (data not shown). Therefore, loss of Rad51 protein may be the direct effect of IBR2 treatment instead of the consequence of G1 arrest. […]
# Western blot analysis: Cells were treated with […] or 50 μg/ml cycloheximide (CHX) or 1 μM MG132 and harvested at different time points for western blot analysis. […] The intensity of bands was quantified by densitometry using Labworks 4.5 software. The relative value of the band intensity was calculated with respect to that of untreated sample after normalization with the p84 signal.
# [5] = test system: g-H2AX foci in MCF-7 cells; assay: IR-induced g-H2AX foci formation (immunostaining); settings: 20 μM IBR2, 20 Gy
# Experimental: Since interaction between BRCA2 and Rad51 appears to be crucial for the formation of IR-induced Rad51 foci, it was contemplated that IBR2 may mimic BRC repeats to disrupt the BRCA2-Rad51 interaction and to thereby diminish the IR-induced Rad51 foci formation. To test this possibility, the number of the MCF-7 cells that formed IR-induced Rad51 foci was measured after IBR2 treatment. […] To test whether this effect applies to other molecules involved in DSB repair, the inventors then examined the IR-induced foci formation of g-H2AX, which is histone H2AX phosphorylated at serine 139 by ATM for the recruitment of NBS1, 53BP and BRCA1, but not Rad51.
# Immunostaining Rad51 and g-H2AX foci: MCF-7 cells were treated with 20 μM IBR2 for 7 or 19 hours and then g-irradiated at 20 Gy. Cells were incubated for an additional 5 hours with 20 μM IBR2, then fixed with 4% paraformaldehyde in PBS containing 0.5% Triton X-100. The fixed cells were incubated with a-Rad51 antibody (mAb 1F5) or a-g-H2AX antibody (Upstate). Rad51 and g-H2AX foci positive cells were subsequently counted as described (Chen et al., 1999).
# [6] = test system: CAPAN-1; assay: Sensitivity of BRCA2-truncated pancreatic cancer cell line; settings: preliminary results
# Description: The absence of BRCA2 in cells also appears to have a significant impact on Rad51 stability rendering them much more sensitive to IBR2 treatment. […] It is therefore contemplated that IBR2 may be particularly useful in treating cancer cells lacking functional BRCA2 (or having a reduced BRCA2 expression) albeit only a small fraction of cancer.
smiles,measurement,setting,value
"O=S(=O)(Cc1ccccc1)N1C=Cc2ccccc2C1c1c[nH]c2ccccc12 (stereo not drawn) [IBR2, 2-(benzylsulfonyl)-1-(1H-indol-3-yl)-1,2-dihydroisoquinoline]",IC50,[1],~10 µM
same,proliferation,[2],significantly inhibited
same,S phase entry (BrdU positive cells),[3],completely arrested at G1 and failed to enter S phase
same,half-life of Rad51,[4],1.5 h
same,IR-induced g-H2AX foci formation,[5],no effect on g-H2AX foci formation
same,sensitivity of CAPAN-1 to IBR2,[6],significant sensitivity
